Like-named read-outs stand apart in the source and are kept apart here.
Experiments:
recombinant Bgl-gyp17 [1] = assay: Enzymatic hydrolysis of PPD-type ginsenosides (TLC, HPLC, NMR); assay type: biochemical, Terrabacter ginsenosidimutans Gsoil 3082; details: 0.2 U enzyme, 50 mM sodium phosphate pH 7.0, 37° C., hydrolysis of glucoses at C-3
Method: In order to analyze the specificity and selectivity of the recombinant enzyme for the hydrolysis of glucose at the C-3 and C-20 positions of PPD-type ginsenoside, ginsenoside Rb1, Rb2, Rc, Rd, and Rg3 were used as substrates. Each reaction mixture containing 0.2 U enzyme, 50 mM sodium phosphate buffer 0.1% (w/v) (pH 7.0), and the substrate was incubated at 37° C. Each sample was withdrawn at regular intervals, and an equal volume of water-saturated butanol was added to stop the reaction. The n-butanol fraction was evaporated to dryness, and any residual material was dissolved in CH3OH and then examined by TLC HPLC or NMR analysis.

tumor cells = details: cited from earlier work
[2] = cited from earlier work
[3] = test system: F9 teratocarcinoma stem cells; details: cited from earlier work
[4] = test system: B16 melanoma, MK-1 (stomach cancer cell), ovarian cancer cell (HRA); details: MK-1, HRA; cited from earlier work
[5] = test system: refolded recombinant ginsenoside glycosidase; assay: Reaction of refolded recombinant ginsenoside glycosidase with Rb1, TLC analysis; assay type: biochemical, Terrabacter ginsenosidimutans Gsoil 3082; details: 1 mg/ml Rb1 solution in 50 mM sodium phosphate
Method: E. coli C41(DE3) containing an overexpressing plasmid was cultured in LB-ampicillin media at 37° C. when the OD value at 600 nm reached 0.6, and treated with 0.5 mM isopropyl-β-D-thiogalactopyranoside for 12 hours to induce protein expression. The bacterial cells were obtained by centrifugation at 4° C. and 5,000×g for 20 minutes. The cell pellet was resuspended in a solution (suspension) consisting of 50 mM sodium phosphate, 5 mM EDTA, and 1% Triton X-100 (pH 7.0) and subjected to ultrasonification. Since the recombinant ginsenoside glycosidase was expressed as an insoluble inclusion body, the sonicated lysate was centrifuged at 4° C. and 20,000×g for 30 minutes to obtain a pellet. The pellet was washed twice with a suspension solution in the absence of Triton X-100. The inclusion body was stirred in a solution containing 50 mM sodium phosphate, 5 mM EDTA, and 8 M urea (pH 8.0) at room temperature overnight for solubilization. After centrifugation (20,000×g, 30 minutes, 4° C.), the solubilized protein was diluted with 40 volumes of a refolding buffer containing 50 mM sodium phosphate, 5% glycerol, 0.05% polyethylene glycol and 0.5 mM sodium chloride at pH 7.0, and refolding of the protein was performed at 4° C. for 24 hours. […] Protein similarity was determined by 10% SDS-PAGE and Coomassie Blue staining. […]

recombinant Bgl-gyp17 [6] = assay: Enzymatic hydrolysis of PPD-type ginsenosides (TLC, HPLC, NMR); assay type: biochemical, Terrabacter ginsenosidimutans Gsoil 3082; details: 1 mg/ml ginsenoside Rb1, enzyme concentrations lower than 0.01 mg/ml
[7] = orally administered into the human body

CC(C)=CCC[C@](C)(O[C@@H]1O[C@H](CO)[C@@H](O)[C@H](O)[C@H]1O)[C@H]1CC[C@]2(C)[C@@H]1[C@H](O)C[C@@H]1[C@@]3(C)CC[C@H](O[C@@H]4O[C@H](CO)[C@@H](O)[C@H](O)[C@H]4O)C(C)(C)[C@@H]3CC[C@]12C [F2, ginsenoside F2]
conversion of the ginsenoside by the enzyme (product) (recombinant Bgl-gyp17 [1]): further converted into C—K (compound K) and C—K | effect on proliferation of tumor cells (tumor cells): suppressing the proliferation of tumor cells | effect on multi-drug resistance (tumor cells; tumor cells and bacteria): reversing multi-drug resistance

CC(C)=CCC[C@](C)(O[C@@H]1O[C@H](CO[C@@H]2O[C@@H](CO)[C@H](O)[C@H]2O)[C@@H](O)[C@H](O)[C@H]1O)[C@H]1CC[C@]2(C)[C@@H]1[C@H](O)C[C@@H]1[C@@]3(C)CC[C@H](O[C@@H]4O[C@H](CO)[C@@H](O)[C@H](O)[C@H]4O[C@@H]4O[C@H](CO)[C@@H](O)[C@H](O)[C@H]4O)C(C)(C)[C@@H]3CC[C@]12C [Rc, ginsenoside Rc]
conversion of the ginsenoside by the enzyme (product) (recombinant Bgl-gyp17 [1]): C-Mc (compound Mc) and C-Mc | in vivo absorption [2, 7]: very low in vivo absorption

CC(C)=CCC[C@](C)(O[C@@H]1O[C@H](CO)[C@@H](O)[C@H](O)[C@H]1O)[C@H]1CC[C@]2(C)[C@@H]1[C@H](O)C[C@@H]1[C@@]3(C)CC[C@H](O)C(C)(C)[C@@H]3[C@@H](O[C@@H]3O[C@H](CO)[C@@H](O)[C@H](O)[C@H]3O[C@@H]3O[C@@H](C)[C@H](O)[C@@H](O)[C@H]3O)C[C@]12C [Re]
in vivo absorption [2, 7]: very low in vivo absorption

CC(C)=CCC[C@](C)(O[C@@H]1O[C@H](CO)[C@@H](O)[C@H](O)[C@H]1O)[C@H]1CC[C@]2(C)[C@@H]1[C@H](O)C[C@@H]1[C@@]3(C)CC[C@H](O)C(C)(C)[C@@H]3[C@@H](O[C@@H]3O[C@H](CO)[C@@H](O)[C@H](O)[C@H]3O)C[C@]12C [Rg1]
in vivo absorption [2, 7]: very low in vivo absorption

CC(C)=CCC[C@](C)(O)[C@H]1CC[C@]2(C)[C@@H]1[C@H](O)C[C@@H]1[C@@]3(C)CC[C@H](O)C(C)(C)[C@@H]3[C@@H](O[C@@H]3O[C@H](CO)[C@@H](O)[C@H](O)[C@H]3O)C[C@]12C [Rh1]
induction of differentiation [3]: strongly induce the differentiation | inhibitory effects on proliferation [4]: strong inhibitory effects

CC(C)=CCC[C@](C)(O)[C@H]1CC[C@]2(C)[C@@H]1[C@H](O)C[C@@H]1[C@@]3(C)CC[C@H](O[C@@H]4O[C@H](CO)[C@@H](O)[C@H](O)[C@H]4O)C(C)(C)[C@@H]3CC[C@]12C [Rh2, ginsenoside Rh2]
conversion of the ginsenoside by the enzyme (product) (recombinant Bgl-gyp17 [1]): converted Rh2 into PPD and PPD | induction of differentiation [3]: strongly induce the differentiation | inhibitory effects on proliferation [4]: strong inhibitory effects

CC(C)=CCC[C@](C)(O[C@@H]1O[C@H](CO[C@@H]2O[C@H](CO)[C@@H](O)[C@H](O)[C@H]2O)[C@@H](O)[C@H](O)[C@H]1O)[C@H]1CC[C@]2(C)[C@@H]1[C@H](O)C[C@@H]1[C@@]3(C)CC[C@H](O[C@@H]4O[C@H](CO)[C@@H](O)[C@H](O)[C@H]4O[C@@H]4O[C@H](CO)[C@@H](O)[C@H](O)[C@H]4O)C(C)(C)[C@@H]3CC[C@]12C [ginsenoside Rb1]
conversion of the ginsenoside by the enzyme (product) (recombinant Bgl-gyp17 [1]): C—K | conversion of the ginsenoside (TLC) [5]: converted ginsenoside Rb1 into gyp XVII | hydrolysis of the ginsenoside (recombinant Bgl-gyp17 [6]): completely hydrolyzed to produce gyp XVII | in vivo absorption ([2]; in vivo, po): very low in vivo absorption

CC(C)=CCC[C@](C)(O[C@@H]1O[C@H](CO[C@@H]2OC[C@H](O)[C@H](O)[C@H]2O)[C@@H](O)[C@H](O)[C@H]1O)[C@H]1CC[C@]2(C)[C@@H]1[C@H](O)C[C@@H]1[C@@]3(C)CC[C@H](O[C@@H]4O[C@H](CO)[C@@H](O)[C@H](O)[C@H]4O[C@@H]4O[C@H](CO)[C@@H](O)[C@H](O)[C@H]4O)C(C)(C)[C@@H]3CC[C@]12C [ginsenoside Rb2]
conversion of the ginsenoside by the enzyme (product) (recombinant Bgl-gyp17 [1]): C—Y (compound Y) | conversion of the ginsenoside by the enzyme (product) (recombinant Bgl-gyp17 [1]; listed as Rb2): C—Y | in vivo absorption ([2]; in vivo, po): very low in vivo absorption
